Source: US20260217735A1, “HETEROCYCLES AND USES THEREOF” (Kumquat Biosciences Inc., priority 2023, published 2026)
Where two headings read alike, the source gives them in different places.

Assays:
MiaPaca2 cells = test: Ras cellular assay, growth of cells with K-Ras G12C mutation; type: cell-based; settings: Homo sapiens, MIA PaCa-2; KRAS G12C cell line; read-out: IC50 against MiaPaca2 cells
Outline: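 Anchorage-independent growth: G12C-mutant MIA PaCa-2 plated in soft agar, time-zero plate read the next day when compound was dosed (final DMSO 0.3%). After growth to day 10, MTS-type absorbance at 490/660 nm relative to time zero gave IC50 via four-parameter fitting.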

KRAS WT = molecular target: T1, KRAS WT (Homo sapiens, UniProt P01116); test: HTRF assay, wildtype KRAS interaction with SOS1; type: biochemical; settings: bins <500 nM / 500 nM to 1000 nM, read-out: Inhibition of KRAS WT (IC50)
T1 construct: made in house; host or cells: E. coli, e.g. BL21 (DE3)

KRAS G12V = molecular target: T2, KRAS G12V (Homo sapiens, UniProt P01116, G12V); test: HTRF assay, KRAS G12V interaction with SOS1; type: biochemical
T2 construct: made in house; host or cells: E. coli, e.g. BL21 (DE3)

KRAS G12D = molecular target: T3, KRAS G12D (Homo sapiens, UniProt P01116, G12D); test: HTRF assay, KRAS G12D interaction with SOS1; type: biochemical
T3 construct: made in house; host or cells: E. coli, e.g. BL21 (DE3)

KRAS G12S = molecular target: T4, KRAS G12S (Homo sapiens, UniProt P01116, G12S); test: HTRF assay, KRAS G12S interaction with SOS1; type: biochemical
T4 construct: made in house; host or cells: E. coli, e.g. BL21 (DE3)

LS123 cells = test: Ras cellular assay, growth of cells with K-Ras G12S mutation (CellTiter-Glo); type: cell-based; settings: Homo sapiens, LS-123; KRAS G12S cell line; read-out: IC50 against LS123 cells
Procedure: For example, this assay can be also used to assess selective growth inhibition of a mutant Ras protein relative to a wildtype or different mutant Ras protein.
A549 (ATCC CRL-185) and LS123 (ATCC CRL-255) cell lines comprise a G12S mutation and can be used to assess Ras cellular signaling in vitro, e.g., in response to treatment with a compound described herein. A549 culture medium is prepared with RPMI-1640 and 10% heat-inactivated FBS. LS123 culture medium is prepared with RPMI-1640 and 10% heat-inactivated FBS. A CellTiter-Glo (CTG) luminescent based assay (Promega) is used to assess growth of the cells, as a measurement of the ability of the compounds herein to inhibit Ras signaling in the cells. The cells (e.g., 800 per well) are seeded in their respective culture medium in standard tissue culture-treated 384-well format plates (Falcon #08-772-116) or ultra-low attachment surface 384-well format plates (S-Bio #MS-9384WZ). […] Cell viability can be monitored (e.g., approximately 6 days later) according to the manufacturer's recommended instructions, where CellTiter-Glo reagent is added (e.g., approximately 10 μL), vigorously mixed, covered, and placed on a plate shaker (e.g., approximately for 20 min) to ensure sufficient cell lysis prior to assessment of luminescent signal. The IC50 values are determined using the four parameter fit. […]

T3 sequence (P01116 1-188 isoform P01116-2 G12D): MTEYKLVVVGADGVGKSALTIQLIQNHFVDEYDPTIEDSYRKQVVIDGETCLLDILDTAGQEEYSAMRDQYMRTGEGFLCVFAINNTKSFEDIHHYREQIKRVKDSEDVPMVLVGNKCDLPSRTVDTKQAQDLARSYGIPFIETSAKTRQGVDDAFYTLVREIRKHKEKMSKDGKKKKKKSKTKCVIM
T2 sequence (P01116 1-188 isoform P01116-2 G12V): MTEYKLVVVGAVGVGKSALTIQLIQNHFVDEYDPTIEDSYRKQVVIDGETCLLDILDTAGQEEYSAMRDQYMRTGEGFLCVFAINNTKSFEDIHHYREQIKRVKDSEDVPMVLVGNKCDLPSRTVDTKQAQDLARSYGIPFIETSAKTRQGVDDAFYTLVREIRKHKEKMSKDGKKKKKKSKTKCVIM
T4 sequence (P01116 1-188 isoform P01116-2 G12S): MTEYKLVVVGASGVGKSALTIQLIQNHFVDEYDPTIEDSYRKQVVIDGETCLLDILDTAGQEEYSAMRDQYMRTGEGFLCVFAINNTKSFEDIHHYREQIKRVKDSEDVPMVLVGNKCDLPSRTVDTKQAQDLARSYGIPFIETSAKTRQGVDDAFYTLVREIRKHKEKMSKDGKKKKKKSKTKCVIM
T1 sequence (P01116 1-188 isoform P01116-2): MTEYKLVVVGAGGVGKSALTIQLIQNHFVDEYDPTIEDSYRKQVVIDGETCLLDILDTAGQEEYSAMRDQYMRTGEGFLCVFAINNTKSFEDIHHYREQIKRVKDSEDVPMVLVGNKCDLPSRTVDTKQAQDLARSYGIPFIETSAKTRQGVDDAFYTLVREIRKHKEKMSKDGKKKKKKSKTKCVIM

IC50 (MiaPaca2 cells): 0.42 nM
IC50 (KRAS WT): < 500 nM
IC50 (KRAS G12V; bins <500 nM / 500 nM to 1000 nM, read-out: Inhibition of KRAS G12V (IC50)): < 500 nM
IC50 (KRAS G12V; read-out: IC50 against KRAS G12V): < 5 nM
IC50 (KRAS G12D; bins <500 nM / 500 nM to 1000 nM, read-out: Inhibition of KRAS G12D (IC50)): < 500 nM
IC50 (KRAS G12D; read-out: IC50 against KRAS G121): < 5 nM
IC50 (KRAS G12S; bins <500 nM / 500 nM to 1000 nM, read-out: Inhibition of KRAS G12S (IC50)): < 500 nM
IC50 (KRAS G12S; read-out: IC50 against KRAS G12S): < 5 nM
SMILES: CCN(c1nc(OCC23CCCN2C(COc2cc(C(F)(F)F)ncn2)CC3)nc2c(F)c(-c3ccc(F)c4sc(N)c(C#N)c34)c(Cl)cc12)[C@@H]1CCN(C(=O)n2cc(C)nc2C)[C@@H]1C (single isomer, unassigned) [Compound 197]
IC50 (LS123 cells): 4.6 nM
